Data on 16 molecules can be found in publication PMC6270602 (Molecules, 2013).

Structures are written as SMILES. Structures can show the parent of a compound that is named as a salt. Where two headings read alike, the source gives them in different places.

In experiment [1] the target is human plasmatic BChE (hBChE; E.C. 3.1.1.8) (Homo sapiens, UniProt P06276). Description: biochemical.
Experiment [2] deals with human recombinant AChE (hAChE; E.C. 3.1.1.7) (Homo sapiens, UniProt P22303). Description: biochemical. To be noted: for IC50: human recombinant AChE, Ellman's method, phosphate buffer pH 7.4, mean of three independent determinations ± SD; for SI (selectivity index for hAChE): ratio of IC50 hBChE towards IC50 hAChE. For orientation: DTNB colorimetry detects thiols as they appear.

[3] abbreviates: human plasmatic BChE, Ellman's method, phosphate buffer pH 7.4, mean of three independent determinations ± SD, read-out: IC50 (µM) ± SD hBChE.

Chain of human plasmatic BChE (hBChE; E.C. 3.1.1.8) (P06276 29-602): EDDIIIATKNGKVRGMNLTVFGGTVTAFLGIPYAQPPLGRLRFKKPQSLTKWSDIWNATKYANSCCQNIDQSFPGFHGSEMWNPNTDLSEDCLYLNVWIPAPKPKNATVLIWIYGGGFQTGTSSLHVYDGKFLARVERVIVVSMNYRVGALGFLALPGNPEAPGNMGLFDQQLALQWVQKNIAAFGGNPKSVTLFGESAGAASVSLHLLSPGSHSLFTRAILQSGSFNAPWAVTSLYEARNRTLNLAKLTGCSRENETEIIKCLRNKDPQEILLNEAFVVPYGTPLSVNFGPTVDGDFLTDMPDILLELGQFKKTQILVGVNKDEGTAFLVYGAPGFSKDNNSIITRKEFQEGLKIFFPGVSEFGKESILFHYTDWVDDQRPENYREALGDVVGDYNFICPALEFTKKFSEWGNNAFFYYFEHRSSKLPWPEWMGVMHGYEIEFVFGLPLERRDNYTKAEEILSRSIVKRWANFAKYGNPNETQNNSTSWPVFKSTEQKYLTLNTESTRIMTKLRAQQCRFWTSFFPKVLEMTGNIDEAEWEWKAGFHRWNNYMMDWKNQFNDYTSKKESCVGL
Chain of human recombinant AChE (hAChE; E.C. 3.1.1.7) (P22303 32-614): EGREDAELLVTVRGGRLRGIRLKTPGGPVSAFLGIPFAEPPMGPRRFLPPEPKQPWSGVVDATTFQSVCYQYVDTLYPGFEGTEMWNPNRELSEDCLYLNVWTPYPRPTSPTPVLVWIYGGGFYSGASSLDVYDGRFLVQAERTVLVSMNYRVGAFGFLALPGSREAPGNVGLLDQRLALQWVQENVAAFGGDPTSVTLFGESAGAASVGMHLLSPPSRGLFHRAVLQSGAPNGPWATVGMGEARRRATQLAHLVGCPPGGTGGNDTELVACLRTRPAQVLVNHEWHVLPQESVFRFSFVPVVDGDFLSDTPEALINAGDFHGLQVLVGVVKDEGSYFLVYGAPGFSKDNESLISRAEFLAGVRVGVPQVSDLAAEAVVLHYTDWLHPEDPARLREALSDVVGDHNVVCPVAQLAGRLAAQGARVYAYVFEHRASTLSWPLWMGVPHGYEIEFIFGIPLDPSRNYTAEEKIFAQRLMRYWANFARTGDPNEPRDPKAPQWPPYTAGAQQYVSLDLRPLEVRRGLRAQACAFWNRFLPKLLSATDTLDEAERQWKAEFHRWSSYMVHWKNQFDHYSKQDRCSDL

Turning to `COc1ccc2nc3c(c(NCCN)c2c1)CCCC3` [Compound 3, N-(7-Methoxy-1,2,3,4-tetrahydroacridin-9-yl)ethane-1,2-diamine], the IC50 (in general, the point on the concentration scale where inhibition reaches its midpoint) was found to be 64.4 ± 10.8 µM in experiment [1] (setting [3]) and 5.32 ± 1.04 µM in experiment [2]. In addition, the “SI (selectivity index for hAChE)” value in experiment [2] stood at 12.1.
On the same counts, the results for `COc1ccc2nc3c(c(NCCCN)c2c1)CCCC3` [Compound 4, N-(7-Methoxy-1,2,3,4-tetrahydroacridin-9-yl)propane-1,3-diamine] are 49.8 ± 8.31 µM, 1.93 ± 0.38 µM and 25.8.
For `COc1ccc2nc3c(c(NCCCCN)c2c1)CCCC3` [Compound 5, N-(7-Methoxy-1,2,3,4-tetrahydroacridin-9-yl)butane-1,4-diamine], in that order: 9.22 ± 1.54 µM, 1.42 ± 0.28 µM and 6.5.
For `COc1ccc2nc3c(c(NCCCCCN)c2c1)CCCC3` [Compound 6, N-(7-Methoxy-1,2,3,4-tetrahydroacridin-9-yl)pentane-1,5-diamine], in that order: 29.6 ± 4.95 µM, 3.44 ± 0.67 µM and 8.6.
On to `COc1ccc2nc3c(c(NCCCCCCN)c2c1)CCCC3` [Compound 7, N-(7-Methoxy-1,2,3,4-tetrahydroacridin-9-yl)hexane-1,6-diamine], for which, in experiment [1] (setting [3]), the IC50 is 10.8 ± 1.81 µM. For the same molecule, in experiment [2], the IC50 is 0.21 ± 0.04 µM and the “SI (selectivity index for hAChE)” value stood at 51.6.
On the same counts, the results for `COc1ccc2nc3c(c(NCCCCCCCN)c2c1)CCCC3` [Compound 8, N-(7-Methoxy-1,2,3,4-tetrahydroacridin-9-yl)heptane-1,7-diamine] are 7.26 ± 1.21 µM, 0.86 ± 0.17 µM and 8.4.
On the same counts, the results for `COc1ccc2nc3c(c(NCCCCCCCCN)c2c1)CCCC3` [Compound 9, N-(7-Methoxy-1,2,3,4-tetrahydroacridin-9-yl)octane-1,8-diamine] are 10.1 ± 1.68 µM, 0.47 ± 0.09 µM and 21.4.
With `S=C=NC12CC3CC(CC(C3)C1)C2` [Compound 10, 1-Adamantyl isothiocyanate, reference compound], the IC50 in experiment [1] was determined as 96.9 ± 16.2 µM; in experiment [2], 25 ± 4.87 µM. The “SI (selectivity index for hAChE)” value in experiment [2] was found to be 3.9.
Take `COc1ccc2nc3c(c(NCCNC(=S)NC45CC6CC(CC(C6)C4)C5)c2c1)CCCC3` [Compound 11, 1-Adamantyl-3-(2-(7-methoxy-1,2,3,4-tetrahydroacridin-9-yl-amino)ethyl)thiourea 2,3-dihydroxysuccinate]: the IC50 in experiment [1] (setting [3]) is 6.02 ± 1.01 µM; in experiment [2] it was 5.02 ± 0.98 µM. Moreover, the “SI (selectivity index for hAChE)” value in experiment [2] is reported as 1.2.
On the same counts, the results for `COc1ccc2nc3c(c(NCCCNC(=S)NC45CC6CC(CC(C6)C4)C5)c2c1)CCCC3` [Compound 12] are 1.39 ± 0.23 µM, 0.53 ± 0.1 µM and 2.6.
On to `COc1ccc2nc3c(c(NCCCCNC(=S)NC45CC6CC(CC(C6)C4)C5)c2c1)CCCC3` [Compound 13], for which the IC50 in experiment [1] (setting [3]) was 0.98 ± 0.16 µM. In addition, in experiment [2], the IC50 is 2.04 ± 0.39 µM and the “SI (selectivity index for hAChE)” value came out at 0.5.
On the same counts, the results for `COc1ccc2nc3c(c(NCCCCCNC(=S)NC45CC6CC(CC(C6)C4)C5)c2c1)CCCC3` [Compound 14] are 0.11 ± 0.02 µM, 0.47 ± 0.09 µM and 0.2.
For `COc1ccc2nc3c(c(NCCCCCCNC(=S)NC45CC6CC(CC(C6)C4)C5)c2c1)CCCC3` [Compound 15], in that order: 0.33 ± 0.05 µM, 2.09 ± 0.4 µM and 0.2.
For `COc1ccc2nc3c(c(NCCCCCCCNC(=S)NC45CC6CC(CC(C6)C4)C5)c2c1)CCCC3` [Compound 16, 1-Adamantyl-3-(2-(7-methoxy-1,2,3,4-tetrahydroacridin-9-yl-amino)heptyl)thiourea 2,3-dihydroxy-succinate], in that order: 0.15 ± 0.02 µM, 3.47 ± 0.67 µM and 0.04.
Turning to `COc1ccc2nc3c(c(NCCCCCCCCNC(=S)NC45CC6CC(CC(C6)C4)C5)c2c1)CCCC3` [Compound 17], the IC50 in experiment [1] (setting [3]) was determined as 0.26 ± 0.04 µM. In experiment [2], the IC50 is 1.62 ± 0.31 µM and the “SI (selectivity index for hAChE)” value came out at 0.2.
As for `NC12CC3CC(CC(C3)C1)C2` [amantadine, 1-adamantylamine hydrochloride, reference compound], the IC50 in experiment [1] (setting [3]) stood at 103 ± 17.1 µM.
